Assay results published in patent US8580776B2, “Compositions and methods for treating neurodegenerating diseases” (The Board of Trustees of the University of Illinois, priority 2007, dated 2013).

Columns and labels:
microglial marker Mac1 = test: Glial activation: Mac1 staining of brain sections; assay type: in vivo, mice
Protocol: The effects of DSP4 treatment on glial activation were assessed in hippocampus and frontal cortex by staining for microglial marker Mac1 and astrocyte marker GFAP (FIG. 3). Sections from vehicle and DSP4 treated H6 mice brains were stained with antibodies directed against Mac1 to assess microglial activation (FIG. 3A-C); and GFAP to assess astrocyte activation (FIG. 3D-F). […] FIGS. 3G-3I show quantitative analysis of Mac1 (FIG. 3G-3H) and GFAP staining (FIG. 31).
Hemibrains were fixed overnight in 4% paraformaldehyde in 0.1M phosphate buffer, then overnight in 10% sucrose in 0.1M phosphate buffer, and then frozen in isopentane at −30° C. Serial sections (35 um thick) were prepared on a cryostat, and stored in cryoprotective solution (0.1M phosphate buffer: ethyleneglycol:glycerol 30:40:30) at −20° C. […] Staining was quantified using software provided by the manufacturer (Zeiss AxioVision). GFAP and Mac1 staining was quantified in 3 different areas on each of 4 serial sections for each animal (n=3 or 4 for Mac1; n=7 or 9 for GFAP staining) The data was average area stained per section (as % total area) from DSP4-treated (n=3 for Mac1; n=7 for GFAP) and vehicle-treated (n=4 for Mac1; n=9 for GFAP) mice. […]

APP = test: Western blot of APP holo-protein and C-terminal fragments in brain extracts; assay type: in vivo, mice; details: cortical lysates, versus vehicle
Protocol: Brain tissue was homogenized in 8M urea. Total protein concentration was determined using the Bradford assay and BSA as standard. Proteins were separated on 8 or 15% SDS page gels, transferred to PVDF membrane and incubated with antibodies: anti-APP^645-694 G369 (1:4000), anti α-tubulin (T-9026, Sigma) (1:5000). Signals were detected using the ECL Kit (Amersham), band intensities calculated using Image J software (ImageJ 1.31V), and normalized to α-tubulin values.

TgAPP H6 mice = test: Amyloid plaque burden (Aβ1-42 staining) in brain sections of TgAPP H6 mice; assay type: in vivo
From the text: Transgenic mice (H6) overexpressing the Indiana V717F mutation of human APP under control of the PDGFR promoter (Mucke et al., 2000, “High-level neuronal expression of abeta 1-42 in wild-type human amyloid protein precursor transgenic mice: synaptotoxicity without plaque formation,” J Neurosci 20:4050-8) were obtained from Dr. Lennart Mucke (J. David Gladstone Institute, San Francisco, Calif.). Male hemizygous H6 mice were bred to wild type C57BL6 (Charles River Breeding) females to obtain hemizygous progeny. Genotype was verified by PCR analysis of tail DNA using the forward primer 5′-GGTGAGTTTGTAAGTGATGCC-3′ (SEQ ID NO:1) and reverse primer 5′-TCTTCTTCTTCCACCTCAGC-3′ (SEQ ID NO:2). Animals were housed in groups of four under standard conditions with full access to food and water.
Hemizygous male H6 mice (aged 3 to 4 months) were injected with vehicle or with DSP4 (5 mg per kg; i.p., every two weeks) and all mice were sacrificed at age 9 months. This protocol (a low, chronic dose) results in 70% loss of LC noradrenergic neurons. Brains were dissected, the left hemispheres were fast frozen in isopentane at −30° C. and stored at −80° C. for subsequent protein and RNA studies. The right hemispheres were processed for immunohistochemistry.
TgAPP H6 mice were treated with DSP4 (5 mg/kg every two weeks) beginning at age 3-4 months, and brain sections analyzed at age 9 months (FIGS. 1A-1B). Hemibrains were fixed overnight in 4% paraformaldehyde in 0.1M phosphate buffer, then overnight in 10% sucrose in 0.1M phosphate buffer, and then frozen in isopentane at −30° C. Serial sections (35 um thick) were prepared on a cryostat, and stored in cryoprotective solution (0.1M phosphate buffer: ethyleneglycol: glycerol 30:40:30) at −20° C. For Aβ1-42 staining, sections were treated with formic acid (95%, 3 min), incubated overnight at 4° C. with primary antibody directed against Aβ1-42 (1:4000 dilution, Calbiochem FCA3542 rabbit polytonal antibody raised against a synthetic peptide corresponding to amino acids 706-713 of human APP), washed, then incubated with anti-rabbit biotinylated secondary antibody (Vector BA-1000, diluted 1:400) and visualized using an ABC kit (Vector). For quantification of Aβ plaques, for each animal (n=6 vehicle treated and n=6 DSP4 treated mice) 8 stained, serial sections separated by 210 μm and spanning approximately 1.5 mm between Bregma points −1.50 mm to −3.00 mm were mounted onto glass slides and imaged with a Zeiss Axiophot 2 microscope, equipped with an Axiocam B&W MRm camera. Sections were viewed at 100× using a 10× objective, and the average plaque number and % area stained (relative to the total section area of 21 mm^2) per section were determined. The threshold of brightness intensity (range black=0 to white=255) used for selection of plaques was established by determining average pixel intensity from 3 areas devoid of staining, and then adjusting that value to maximize inclusion of all visibly-stained plaques while minimizing inclusion of background areas. This value was used for all sections (all stained at the same time). For all sections, visual inspection following automated counting was done to ensure exclusion of meninges, ventricular space, or other artifacts.
Representative sections from vehicle (FIG. 1A, containing 19 plaques) and DSP4 treated (B, containing 64 plaques) mice are shown in FIG. 1. Plaque burden (number and area stained) was quantified using Axiovision 4.5 Measurement Wizard software. Sections were viewed at 100× using a 10× objective, and the average plaque number (FIG. 1C) and % area stained (FIG. 1D, relative to the total section area of 21 mm^2) per section determined (n=8 sections per animal). The data was analyzed by two-tailed t-test assuming equal variances; *, P <0.05. The relative size distribution for all plaques detected in vehicle (n=626) and DSP4 treated (n=3009) brain sections is shown (FIG. 1E). […]

SMILES: CCN(CCCl)Cc1ccccc1Br [DSP4, N-(2-chloroethyl)-N-ethyl-2-bromobenzylamine]
- Mac1 staining, hippocampus and frontal cortex (microglial marker Mac1; hippocampus effect not statistically significant): increased Mac1 staining in both regions
- increase in Mac1 staining, frontal cortex (microglial marker Mac1; versus vehicle, statistically significant): approximately 40%
- levels of holoAPP (APP): no effect
- average plaque number (TgAPP H6 mice; DSP4 5 mg/kg every two weeks, age 9 months, vehicle 13.5±3): 62.7±18 per section
- average area stained (TgAPP H6 mice; DSP4 5 mg/kg every two weeks, age 9 months, vehicle 1,810±464): 11,100±3,000 μm^2
- plaques >5,000 μm^2 out of all plaques detected (TgAPP H6 mice; DSP4 sections, vehicle 1/626): 16/3009
- relative plaque size distribution (TgAPP H6 mice; age 9 months): did not significantly alter
- increase in plaque number (TgAPP H6 mice; age 9 months, versus vehicle): 5 fold
- area stained as % total sectional area (TgAPP H6 mice; age 9 months, vehicle 0.008%): 0.051%
- plaque appearance in non-transgenic wild type littermates (TgAPP H6 mice; data not shown): did not induce plaque appearance
- average plaque size (TgAPP H6 mice; n=3009 plaques, vehicle 135±18, increase not statistically significant): 174±8 μm^2
- plaques with size greater than 7,000 μm^2 (TgAPP H6 mice; out of 3009 counted): 13 out of 3009
- plaques in representative section (TgAPP H6 mice; representative section FIG. 1B, vehicle 19): 64 plaques
